Results taken from PubChem BioAssay AID179 (DTP/NCI, 2004).
Activity calls are given as the source filed them.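 The calls were made as follows: active = compounds giving half or more protection of infected cells from virus-caused growth loss, again on retest; inactive = the rest.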

System: CEM cells HIV-1 protection, formazan growth assay
Test: NCI AIDS Antiviral Assay
Details: for IC50: measured here: growth of uninfected CEM cells
How it was run: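 Protection of CEM cells against HIV-1 measured as cell growth via soluble formazan read-out, with five concentrations tested on both infected and uninfected cells; failure to protect may reflect toxicity.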

`N#CCc1c(F)c(F)c(F)c(F)c1F` was tested, and the EC50 was > 200 µM and the IC50 was > 200 µM.
In the case of `CCOC(=O)CNCc1cc(=O)[nH]c2cc(Cl)ccc12`, the EC50 is reported as > 200 µM and the IC50 is reported as 40.7 µM.
For `O=c1[nH]c2ccccc2c(O)c1-c1ccccc1`, the EC50 was > 200 µM and the IC50 was > 200 µM.
With `CN(c1ccc(/C=C/c2ccccc2)cc1)P1(=O)NCCCO1` (centres undefined) the EC50 was > 41.7 µM and the IC50 was 28.2 µM.
`C=CC[N+](CC)(CC)Cc1ccc(C[N+](CC)(CC)CC=C)cc1` was tested, and the EC50 was > 513 µM and the IC50 was > 513 µM.
For `CC(C)c1ccc(C(c2ccc(OCC(=O)O)cc2)c2ccc(C(C)C)cc(=O)c2O)c(O)c(=O)c1`, the outcome was “inactive”.
With `COc1ccccc1-n1c(=O)n(C)c(=O)n1C(C)(C)C` the EC50 was > 200 µM and the IC50 was > 200 µM.
For `COc1cc2c3c(cccc3c1)C(=O)N(CCN(C)C)C2=O`, the EC50 was > 200 µM and the IC50 was 1.26 µM.
`Cc1cc(C(F)(F)F)nc2nc3ccccc3n12` was tested, and the EC50 was > 200 µM and the IC50 was > 200 µM.
In the case of `CC1=Nc2c([nH]c(=S)[nH]c2=O)NC(c2ccc(Cl)c(Cl)c2)C1` (centres undefined), the EC50 is reported as > 7.76 µM and the IC50 is reported as > 7.76 µM.
With `CC(=O)Nc1cccc(N2C(=O)/C(=C\c3cccc(Oc4ccccc4)c3)S(=O)(=O)C2c2ccccc2)c1` (centres undefined) the EC50 was > 200 µM and the IC50 was 34.7 µM.
In the case of `CCOC(=O)c1c(SCCO)n(-c2ccccc2)c(=S)n(-c2ccccc2)c1=O`, the EC50 is reported as > 200 µM and the IC50 is reported as > 200 µM.
In the case of `Cc1n[n+](CC(=O)c2ccccc2)c2sc(N)nn12`, the EC50 is reported as > 200 µM and the IC50 is reported as 132 µM.
For `C=CCN1CCC(OC(=O)C(O)(C#CC)C2CCCC2)CC1` (centres undefined), the EC50 was > 200 µM and the IC50 was > 200 µM.
With `CNCCCCN(C)/[N+]([O-])=N\O` the EC50 was > 8910 µM and the IC50 was 4070 µM.
With `C/C(=C1/CCC/C(=C(/C)c2ccccc2)C1=O)c1ccccc1` the EC50 was > 9.12 µM and the IC50 was > 9.12 µM.
For `COC(=O)C1(Cc2ccc3c(c2)CCC3)Cc2ccccc2C1`, the EC50 was > 200 µM and the IC50 was 35.5 µM.
In the case of `CC(NC(=O)OC(C)(C)C)C(=O)C(N)=O` (centres undefined), the EC50 is reported as > 200 µM and the IC50 is reported as > 200 µM.
In the case of `N#Cc1c(N)c(C(=O)Nc2ccccc2)n2c1CCCC2`, the EC50 is reported as > 200 µM and the IC50 is reported as > 200 µM.
In the case of `C=Cc1cc[n+](CCCCCC[n+]2ccc(C=C)cc2)cc1`, the EC50 is reported as > 200 µM and the IC50 is reported as > 200 µM.
In the case of `CC1(C)CNC[C@@]2(C)OCCN(C(=O)OC(C)(C)C)CCO[C@]3(C)CNCC(C)(C)NC(=O)[C@@](C)(CNCC(C)(C)NC3=O)OCCN(C(=O)OC(C)(C)C)CCO[C@](C)(CNCC(C)(C)NC2=O)C(=O)N1`, the outcome is reported as “inactive”.
`COc1cc([N+](=O)[O-])ccc1C(=O)Nc1c2ccccc2nc2ccccc12` was tested, and the EC50 was > 200 µM and the IC50 was 0.479 µM.
With `Nc1ccc(C(=O)NN2C(=O)C(Cl)C2c2ccc(O)cc2)cc1` (centres undefined) the EC50 was > 200 µM and the IC50 was 9.12 µM.
